{
  "source": "patent US5114926A",
  "about": "“Tetrapeptide inhibiting the entry into cycle of hemopoietic stem cells processes for its preparation, and its uses” (Institut National De La Sante Et De La Recherche Medicale, priority 1986, dated 1992)",
  "key": {"CFU-S [1]": {"system": "CFU-S", "assay": "in vivo inhibition of the entry into cycle of the CFU-S induced by an injection of Ara-C", "parameters": "species or system mice of Balb/C or CBA strain", "conditions": "for % of CFU-S in DNA synthesis: protocol II, i.p.; for biological activity compared with the natural peptide: synthetic versus natural peptide, tables I, II and III", "experimental": "The biological activity of the fractions is measured by in vivo inhibition tests of the entry into cycle of the CFU-S, induced by an injection of Ara-C.\nThe CFU-S of the mouse, normally quiescent, enter into cycle after an injection of Ara-C.\nThe number of CFU-S is determined by the technique of J. E. Till and E. A. McCulloch, Radiat. Res. 14, (1961), 213-222, whose principle rests on the capacity of CFU-S to form macroscopic colonies in the spleen. These colonies are clones descended from one CFU-S.\nThe proportion of CFU-S in S phase is determined by the method of A. J. Becker et al., Blood, 26, (1965), 296-308, based on the principle of cellular suicides. The incubation of the cells with a tritiated thymidine (precursor of DNA) solution leads to the selective death of the cells in phase of DNA synthesis by integration of a lethal dose of radioactivity (tritium) into the DNA molecule.\nThe tests are performed on SPF (Specific Pathogen Ffree)mice of Balb/C or CBA strain, aged from 2 to 3 months.\n1. The control groups receive by the i.p. route the following treatment:\nTime 0: Ara-C (10 mg--protocol I or 20 mg--protocol II) dissolved in 0.2 ml of saline;\nTime 6H: 0.2 ml of saline;\nTime 8H: sacrifice (protocol I);\nTime 12H: sacrifice (protocol II).\n2. The treated groups receive by the i.p. route:\nTime 0: Ara-C (10 mg--protocol I or 20 mg--protocol II) dissolved in 0.2 ml of saline.\nTime 6h: fraction to be tested dissolved in 0.2 ml of saline;\nTime 8H: sacrifice (protocol I):\nTime 12H: sacrifice (protocol II). [drawing 1]\nFor each of the groups, the bone marrow of the animals is collected and suspended in 2 ml of Medium 199 (EUROBIO). After the numbering and suitable dilution, 2 aliquots of 5×10^6 nucleated cells are incubated at 37° C. for 20 min. either with 1 ml of Medium 199 (Test A), or with 1 ml of tritiated thymidine (200 μCi) (Test B). A cellular suspension of 0.2 ml containing 8×10^4 to 1.2×10^5 nucleated cells is injected intravenously into the retro-orbital sinus of the irradiated receiver animals (9 Gy, 8 mice per experimental plot). Nine days later, the receiver mice are sacrificed, their spleen taken out and fixed in Bouin fluid (1% picric acid: 720 g; formol: 240 g; acetic acid: 4 g, per 1 l of fluid). After some hours of fixation, the nodules visible macroscopically are counted.\nIf N and N' are the average numbers of the nodules obtained on the spleens of the receivers having received cells coming form tests A and B respectively, the proportion of CFU-S in phase of DNA synthesis is calculated by the formula: [formula]"}, "[2]": {"assay": "survival of animals treated with lethal doses of Ara-C", "assay_type": "in vivo, mice", "conditions": "Ara-C 4×925 mg/kg at 0, 7, 24 and 30 hours; tested fraction once at 26 hours", "experimental": "The animals receive fractionated doses of Ara-C (4×925 mg/kg) at times 0, 7, 24 and 30 hours. The tested fraction is administered at once 26 hours after the first injection of Ara-C. The survival of the animals is estimated 15-30 days after the treatment."}, "EMT6 tumor": {"system": "EMT6 tumor", "assay": "regression of EMT6 tumors under Ara-C plus inhibitor", "assay_type": "in vivo, mice", "conditions": "EMT6 tumor carriers, Ara-C at 0, 7, 24 and 30 hours, inhibitor at 26 hours"}, "CFU-S [3]": {"system": "CFU-S", "assay": "toxicity with respect to CFU-S", "assay_type": "in vivo, mice", "conditions": "at the doses used"}, "[4]": {"assay": "lethality in the treated mice", "assay_type": "in vivo", "conditions": "at the doses used"}},
  "note": "Several values for one entry are separate records, joined by “and”; a condition that tells them apart may be missing. Identical values can stand only once. Where a SMILES comes first, the peptide text is derived from it.",
  "data": [
    {"smiles": "Nc1ccn([C@@H]2O[C@H](CO)[C@@H](O)[C@@H]2O)c(=O)n1", "note": "[Ara-C, cytosine arabinoside, reference compound]", "values": [
      {"measurement": "percentages of CFU-S in phase of DNA synthesis", "setting": "CFU-S [1]; ARA-C alone, Table III batch A series (5 exp.)", "result": "40.7 ± 9.3", "unit": "%"},
      {"measurement": "percentages of CFU-S in phase of DNA synthesis", "setting": "CFU-S [1]; ARA-C alone, Table III batch B series (2 exp.)", "result": "47.4 ± 9", "unit": "%"},
      {"measurement": "percentages of CFU-S in phase of DNA synthesis, mean", "setting": "CFU-S [1]; ARA-C alone, mean of Table II tests 1-8", "result": 38.7, "unit": "%"},
      {"measurement": "percentages of CFU-S in phase of DNA synthesis, mean", "setting": "CFU-S [1]; ARA-C alone, mean of Table III series A and B", "result": 44.1, "unit": "%"},
      {"measurement": "% of CFU-S in DNA synthesis", "setting": "CFU-S [1]; Ara-C (20 mg) alone", "result": "43 ± 9", "unit": "%"}
    ]},
    {"smiles": "CC(=O)N[C@@H](CO)C(=O)N[C@@H](CC(=O)O)C(=O)N[C@@H](CCCCN)C(=O)N1CCC[C@H]1C(=O)O", "note": "[synthetic tetrapeptide, Ac-S-D-K-P--OH] (Ac-SDKP-OH)", "values": [
      {"measurement": "percentages of CFU-S in phase of DNA synthesis", "setting": "CFU-S [1]; ARA-C + synthetic tetrapeptide 25 ng/mouse, test 6, second synthesis", "result": 19, "unit": "%"},
      {"measurement": "percentages of CFU-S in phase of DNA synthesis", "setting": "CFU-S [1]; ARA-C + synthetic tetrapeptide 50 ng/mouse, test 5, second synthesis", "result": 13, "unit": "%"},
      {"measurement": "percentages of CFU-S in phase of DNA synthesis", "setting": "CFU-S [1]; ARA-C + synthetic tetrapeptide 100 ng/mouse, tests 4, 7, 8, second synthesis", "result": "6% and 10%"},
      {"measurement": "percentages of CFU-S in phase of DNA synthesis, mean", "setting": "CFU-S [1]; ARA-C + synthetic tetrapeptide, mean of tests 1-8 (25-100 ng/mouse)", "result": 10.5, "unit": "%"},
      {"measurement": "biological activity compared with the natural peptide", "setting": "CFU-S [1]", "result": "possesses the biological properties of the natural peptide"},
      {"measurement": "biological activity compared with the natural peptide", "setting": "CFU-S [1]; listed as synthetic peptide", "result": "quite similar activity to that obtained with a natural peptide"}
    ]},
    {"smiles": "CC(=O)N[C@@H](CO)C(=O)N[C@@H](CC(=O)O)C(=O)N[C@@H](CCCCN)C(=O)N1CCC[C@H]1C(=O)O", "note": "[inhibitor, n--acetyl-seryl-aspartyl-lysyl-proline] (Ac-SDKP-OH)", "values": [
      {"measurement": "percentages of CFU-S in phase of DNA synthesis", "setting": "CFU-S [1]; ARA-C + natural peptide 100 ng/mouse, bone marrow batch A (5 exp.)", "result": "12.6 ± 14.8", "unit": "%"},
      {"measurement": "percentages of CFU-S in phase of DNA synthesis", "setting": "CFU-S [1]; ARA-C + natural peptide 100 ng/mouse, bone marrow batch B (2 exp.)", "result": "2.99 ± 13", "unit": "%"},
      {"measurement": "percentages of CFU-S in phase of DNA synthesis, mean", "setting": "CFU-S [1]; ARA-C + natural peptide, mean of batches A and B", "result": 7.8, "unit": "%"},
      {"measurement": "% of CFU-S in DNA synthesis", "setting": "CFU-S [1]; Ara-C (20 mg) + inhibitor (100 ng per mouse)", "result": "7 ± 4", "unit": "%"},
      {"measurement": "dosage at which the fraction is active in the mouse", "setting": "CFU-S [1]; homogeneous fraction after reverse phase HPLC", "result": "about 100 ng/mouse"},
      {"measurement": "entry of the CFU-S into DNA synthesis (S phase)", "setting": "CFU-S [1]; inhibitor injected 6 hours after Ara-C", "result": "prevents the entry of the CFU-S into DNA synthesis"},
      {"measurement": "survival of the animals 15-30 days after the treatment", "setting": "[2]", "result": "enabled the definitive survival of a large number of animals"},
      {"measurement": "effect on the therapeutic action of Ara-C with respect to tumor cells", "setting": "EMT6 tumor", "result": "does not prevent the therapeutic action of Ara-C with respect to tumor cells"},
      {"measurement": "survival of the treated animals", "setting": "EMT6 tumor; comparable with bone marrow grafting", "result": "permits the survival of the treated animals"},
      {"measurement": "toxicity with respect to CFU-S", "setting": "CFU-S [3]", "result": "devoided of toxicity with respect to CFU-S"},
      {"measurement": "lethality in the treated mice", "setting": "[4]", "result": "does not result in any lethality"}
    ]}
  ]
}
